Legend:
PDK-1 = PDK-1 immunoprecipitation kinase assay from ICAM-2 cells; assay type: biochemical; details: compounds 10 μM, 1 hr
From the text: A) ICAM-2, interacts with α-actinin and ezrin. ICAM-2, ICAM2-ΔC or control cells were immunoprecipiated for ICAM-2, and immunoblotted for either a-actinin or ezrin. Control lysates were not subjected to immunoprecipitation and reflect positive controls for detected interacting protein. […] ICAM-2, and control cells were serum starved (48, hrs), treated with LY294002, (10, μM, 24, hrs), or cultured in growth media, and prepared for intracellular detection of phosphatidyinositol 3,4,5, triphosphate detection by flow cytometry. […] Phosphotransfer of ATP to peptide substrate was detected by scintillation counting and presented as counts per minute CPM. […]
PDK-1 activity was determined by a PDK-1 immunoprecipiation kinase assay kit (Upstate Biotecnology, Lake Placid, N.Y.) as recommended by manufacturer. In brief, PDK-1 was immunoprecipitated from 1×10^6 treated cells, incubated with inactivated SGK enzyme, and detection of (γ-^32P) ATP incorporation to a SGK peptide substrate was measured by scintillation counting. PI3K activity was detected by developed PI3K FACS based assay (see below). AKT activity was detected by immunoprecipitation of AKT1 from cells and used in a kinase assay with GSK3 fusion protein (CST). […] Kinase reaction was terminated with SDS sample buffer boiled for 5 min, and phosphorylation state of GS3K was detected by immunoblotting and visualized using ECL detection (Amersham). […]

ezrin = assay: phosphotyrosine-protein based elisa for ezrin tyrosine phosphorylation upon ICAM-2 ligation; assay type: cell-based, human; details: Jurkat cells
Protocol: A) Expression levels of ICAM-2, vary across cell lines of different origins. Quantitative flow cytometry analysis was performed to assess the number of ICAM-2 surface molecules across transformed and untransformed fibroblasts, lymphocytes of T-cell and different B-cell differentiation states and myeloid lineages (see Material and Methods for elaboration). The number of surface molecules/cell is expressed as the mean (bar)+/−SD of triplicate experiments. B) Crosslinking of endogenous ICAM-2, induces ezrin tyrosine phosphorylation and enhanced ICAM-2, interaction. Jurkat cells were crosslinked for ICAM-2 using monoclonal antibody for the indicated times and subjected to immunoprecipitation/immunoblotting as indicated. C) Inhibition of ezrin phosphotyrosine by chemical inhibitors of src and Rho-dependent kinases. D) Ezrin phosphorylation and enhanced interaction with the p85, subunit of PI3K as a function of ICAM-2. Determined as described above. E) PDK-1, activity as a function of ICAM-2, ligation, as described above). F) PI3K and AKT localize to the membrane as a function of ICAM-2, ligation. Membrane/cytosolic fractionation was performed on ICAM-2, ligated Jurkat cells as a function of time and subjected to immunoblotting for PI3K and AKT.
In order to identify upstream kineses capable of tyrosine phosphorylating ezrin as a function of ICAM-2 ligation, we developed a phosphotyrosine-protein based elisa to screen for the inhibition of ezrin tyrosine phosphorylation in vivo by various known inhibitors of protein kineses (Perez and Nolan, manuscript in preparation). […] Given the design of the screen to detect tyrosine residue phosphorylation, we speculate that activation of Rho-dependent processes may be a prerequisite for ezrin to be tyrosine phosphorylated by src (elaborated below).

Jurkat T cells = assay: anti-Fas induced apoptosis in ICAM-2 crosslinked Jurkat cells, annexin-V binding assay; assay type: cell-based, human; details: inhibitor 10 μM 1 hour, anti-Fas 50 ng/ml 8 hours
Protocol: A) ICAM-2, crosslinking induced AKT activity in Jurkat T cells and subsequent phosphorylation of GSK3, FKHR, and AFX as a function of time. Serum starved Jurkat T cells were incubated with either isotype control or anti-human ICAM-2, (10, μg/ml) for the indicated times. AKT kinase activity was determined as described. Immunoblot analysis verified AKT dual phosphorylation, FKHR and GSK3 phosphorylation, and BAD phosphorylation as a function of ICAM-2, crosslinking. B) ICAM-2 crosslinking induces AKT activity in BaF3, pre-B cells. […] ICAM-2, was crosslinked on 106, Jurkat T cells using an ICAM-2, mAb (10, μg/ml) 30, minutes prior to treatment with staurosporine (+) or DMSO vehicle (−). Apoptosis was determined by flow cytometry using annexin-V binding assay. […] Cells were assessed for apoptosis by annexin-V binding assay. […]
Apoptosis was determined either by counting pyknotic nuclei, annexin-V binding by flow cytometry, or TUNEL BrdU staining by flow cytometry as indicated. Apoptosis was induced either by staurosporine (1 μm), treatment with anti-mouse Fas (5 μq/ml Santa Cruz Biotechnology (SCB), anti-human Fas ([…]) as indicated in appropriate experiment, IL-3 withdrawal-(24 hrs) or as indicated. For pyknolic nuclei count, NIH3T3 cells were grown on glass coverslips and assayed for apoptosis. Suspension cells were analyzed by nuclear staining with 25 μM acridine orange/25 μm ethidium bromide or 5 μg/ml Hoechst 33342 (Molecular Probes, Eugene, Oreg.). Apoptosis was identified by the presence of characteristic pyknotic nuclei as described (Jacobson and Raff, 1995). At least 5 individual fields were photographed and counted using a Zeiss axioscope fluorescence microscope. […] The cells were trypsinized and viable cells counted following trypan blue staining. Untreated cells were counted at the time of treatment. % survival represents (number of viable cells post-treatment)/(number of viable cells pretreatment). […] Flow cytometry analysis was performed on a BD FACSCalibur machine with CELLQuest and analyzed using FlowJo software (Tree Star).

CD19+ human B cells = details: 10 μM, 30 minutes
Protocol: Apoptosis was measured by annexin-V binding detected by flow cytometry, and gated for CD19+, cells. […] Apoptosis was measured by annexin-V binding assay.
Antibody cross-linking experiments were performed using mAbs to anti-ICAM-1, anti-ICAM-2, anti-ICAM-3, anti-CD43, or anti-CD44 that recognizes the N-terminal region (extracellular domain) at 10 μg/ml. Spin dialysis (Biorad) was used for buffer exchange of azide containing antibodies (0.01%) to phosphate buffered saline buffer pH 7.4. Anti-mouse IgG (Sigma) was used as a control antibody in cross-linking experiments. 1×10^6 Jurkat, 1×10^6 BaF3, or 1×10^7 PBMC cells were serum starved for 4 hours respectively (except PBMC). Cells were incubated with either mAb (10 μg/ml) or mouse IgG (10 μg/ml) at 37° C. for the indicated time. Time points began post serum starvation to attenuate most of the signaling pathways or as indicated. […] Cells extracts were taken and subjected to either immunoprecipitation or immunoblotting were appropriate. Primary cells were subjected to apoptotic treatment followed by preparation for flow cytometry. GTPγS was made cell permeant by pre-incubating compound with Fugene (Roche Biochemicals) in a 1:4 molar ratio for 30 minutes at 25° C. prior to being applied to cells.

What does the source list for `C[C@@H](N)[C@H]1CC[C@H](C(=O)Nc2ccncc2)CC1` [Y-27632]?
PDK-1 activity in ICAM-2 cells (PDK-1): partially inhibited; tyrosine phosphorylation of ezrin (ezrin): inhibit the tyrosine phosphorylation of ezrin; tyrosine phosphorylation of ezrin (ezrin; listed as Y-27362): abolished tyrosine phosphorylation of ezrin; ICAM-2 crosslinking protection against Fas induced apoptosis (Jurkat T cells): abrogated; ICAM-2 anti-apoptotic effect in CD19+ human B cells (CD19+ human B cells): abrogated

— US8962263B2, “Methods and compositions for detecting the activation state of multiple proteins in single cells” (The Board of Trustees of the Leland Stanford Junior …, priority 2001, dated 2015)
